Key:
Test in all cases: relative viability (nuclei count vs DMSO), 5 days (fraction); higher = more cells survive
AZD8055 + Vorinostat = compound: COc1ccc(-c2ccc3c(N4CCOC[C@@H]4C)nc(N4CCOC[C@@H]4C)nc3n2)cc1CO [AZD8055] + O=C(CCCCCCC(=O)Nc1ccccc1)NO [Vorinostat] (partner 1 µM)
In short: (§1)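 Relative viability divides the nuclei count in treated wells by that in vehicle wells. Lung cancer cell lines were seeded in 1536-well plates, dosed by pin tool the next day, and fixed and stained after 5 days in one step with final 0.05% Triton X-100, 1% formaldehyde and 1 ug/ml Hoechst. Dosing was a single drug or a fixed anchor-drug dose plus five library-drug doses (not always all listed) in √10 steps, and values are medians of duplicate plates imaged at 4×.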

AZD8055 + Crizotinib = compound: COc1ccc(-c2ccc3c(N4CCOC[C@@H]4C)nc(N4CCOC[C@@H]4C)nc3n2)cc1CO [AZD8055] + C[C@@H](Oc1cc(-c2cnn(C3CCNCC3)c2)cnc1N)c1c(Cl)ccc(F)c1Cl [Crizotinib] (partner 1 µM)
In short: as §1

AZD8055 + Tozasertib = compound: COc1ccc(-c2ccc3c(N4CCOC[C@@H]4C)nc(N4CCOC[C@@H]4C)nc3n2)cc1CO [AZD8055] + Cc1cc(Nc2cc(N3CCN(C)CC3)nc(Sc3ccc(NC(=O)C4CC4)cc3)n2)n[nH]1 [Tozasertib] (partner 0.1 µM)
In short: as §1

AZD8055 + Navitoclax = compound: COc1ccc(-c2ccc3c(N4CCOC[C@@H]4C)nc(N4CCOC[C@@H]4C)nc3n2)cc1CO [AZD8055] + CC1(C)CCC(c2ccc(Cl)cc2)=C(CN2CCN(c3ccc(C(=O)NS(=O)(=O)c4ccc(N[C@H](CCN5CCOCC5)CSc5ccccc5)c(S(=O)(=O)C(F)(F)F)c4)cc3)CC2)C1 [Navitoclax] (partner 0.5 µM)
In short: as §1

| Cell Line | relative viability (AZD8055 + Vorinostat; first compound 0.01 µM) | relative viability (AZD8055 + Vorinostat; first compound 0.03162 µM) | relative viability (AZD8055 + Vorinostat; first compound 0.1 µM) | relative viability (AZD8055 + Vorinostat; first compound 0.3162 µM) | relative viability (AZD8055 + Vorinostat; first compound 1 µM) | relative viability (AZD8055 + Crizotinib; first compound 0.01 µM) | relative viability (AZD8055 + Crizotinib; first compound 0.03162 µM) | relative viability (AZD8055 + Crizotinib; first compound 0.1 µM) | relative viability (AZD8055 + Crizotinib; first compound 0.3162 µM) | relative viability (AZD8055 + Crizotinib; first compound 1 µM) | relative viability (AZD8055 + Tozasertib; first compound 0.01 µM) | relative viability (AZD8055 + Tozasertib; first compound 0.03162 µM) | relative viability (AZD8055 + Tozasertib; first compound 0.1 µM) | relative viability (AZD8055 + Tozasertib; first compound 0.3162 µM) | relative viability (AZD8055 + Tozasertib; first compound 1 µM) | relative viability (AZD8055 + Navitoclax; first compound 0.01 µM) | relative viability (AZD8055 + Navitoclax; first compound 0.03162 µM) | relative viability (AZD8055 + Navitoclax; first compound 0.1 µM) | relative viability (AZD8055 + Navitoclax; first compound 0.3162 µM) | relative viability (AZD8055 + Navitoclax; first compound 1 µM) |
| --- | --- | --- | --- | --- | --- | --- | --- | --- | --- | --- | --- | --- | --- | --- | --- | --- | --- | --- | --- | --- |
| CAL-12T | 0.954 | 0.631 | 0.598 | 0.276 | 0.217 | 0.557 | 0.607 | 0.521 | 0.308 | 0.165 | 0.329 | 0.37 | 0.277 | 0.174 | 0.166 | 1.25 | 1.24 | 0.838 | 0.35 | 0.23 |
| EPLC-272H | 0.331 | 0.401 | 0.343 | 0.144 | 0.261 | 0.865 | 0.739 | 0.498 | 0.494 | 0.37 | 0.279 | 0.152 | 0.161 | 0.229 | 0.222 | 1.1 | 0.842 | 0.556 | 0.378 | 0.35 |
| NCI-H2405 | 1.19 | 0.918 | 0.796 | 0.36 | 0.373 | 0.804 | 0.815 | 0.681 | 0.516 | 0.311 | 0.812 | 0.815 | 0.676 | 0.448 | 0.344 | 0.939 | 0.93 | 0.708 | 0.392 | 0.291 |
| HCC-15 | 0.833 | 0.844 | 0.762 | 0.468 | 0.333 | 0.816 | 0.788 | 0.746 | 0.529 | 0.334 | 0.437 | 0.379 | 0.415 | 0.296 | 0.222 | 0.782 | 0.591 | 0.561 | 0.38 | 0.293 |
| PC-3 [JPC-3] | 0.849 | 0.902 | 0.631 | 0.534 | 0.495 | 1.06 | 1.05 | 1.01 | 0.712 | 0.53 | 0.864 | 0.993 | 0.978 | 0.614 | 0.431 | 0.83 | 0.847 | 0.775 | 0.575 | 0.421 |
| NCI-H1944 | 0.518 | 0.431 | 0.422 | 0.223 | 0.207 | 1.09 | 0.918 | 0.973 | 0.427 | 0.343 | 0.243 | 0.253 | 0.206 | 0.171 | 0.166 | 1.05 | 0.929 | 0.851 | 0.457 | 0.316 |
| HARA | 0.574 | 0.527 | 0.441 | 0.24 | 0.227 | 1.09 | 1.14 | 0.855 | 0.573 | 0.33 | 0.103 | 0.162 | 0.0997 | 0.0987 | 0.0859 | 1.16 | 1.13 | 0.935 | 0.738 | 0.393 |
| NCI-H2126 | 0.82 | 0.739 | 0.505 | 0.496 | 0.405 | 0.997 | 1.02 | 0.926 | 0.617 | 0.494 | 0.844 | 0.829 | 0.687 | 0.427 | 0.375 | 0.801 | 0.763 | 0.641 | 0.487 | 0.345 |
| LXF-289 | 0.745 | 0.754 | 0.709 | 0.523 | 0.515 | 0.902 | 0.855 | 0.807 | 0.702 | 0.686 | 0.234 | 0.295 | 0.212 | 0.201 | 0.105 | 0.979 | 0.995 | 0.831 | 0.694 | 0.529 |
| NCI-H460 | 1.02 | 0.629 | 0.498 | 0.0504 | 0.0551 | 1.05 | 0.654 | 0.818 | 0.106 | 0.0777 | 0.648 | 0.675 | 0.529 | 0.208 | 0.124 | 1.19 | 0.892 | 0.523 | 0.121 | 0.0653 |
| NCI-H2170 | 0.815 | 0.734 | 0.487 | 0.271 | 0.226 | 1.2 | 1.07 | 0.641 | 0.394 | 0.376 | 0.794 | 0.732 | 0.485 | 0.349 | 0.239 | 0.59 | 0.517 | 0.295 | 0.189 | 0.191 |
| NCI-H2009 | 0.816 | 0.798 | 0.732 | 0.458 | 0.395 | 1.01 | 1.05 | 0.832 | 0.831 | 0.273 | 0.763 | 0.735 | 0.723 | 0.535 | 0.279 | 1.11 | 1.14 | 1.04 | 0.553 | 0.323 |

Reference: the supplement of paper PMC10307832
